Data as given in article PMC9172283 (Antiviral Research, 2022).

Columns and labels:
SARS-CoV-2 M^pro = SARS-CoV-2 M^pro (Severe acute respiratory syndrome coronavirus 2, UniProt P0DTD1); test: FRET-based SARS-CoV-2 M^pro activity assay in vitro; format: biochemical; conditions: for Fold increase of inhibitory potency against M^pro compared to parental hit 7: compared to hit 7
SARS-CoV-2 [1] = test: Plaque reduction assay; format: cell-based, SARS-CoV-2/NL/2020 strain; conditions: ratio between CC50 and EC50; SARS-CoV-2, Vero E6 cells
[2] = MTT cell viability assay in Vero E6 cells; format: cell-based; conditions: African green monkey
SARS-CoV-2 [3] = test: Virus yield reduction assay of SARS-CoV-2 in Calu-3 cells; format: cell-based; conditions: MOI 0.01, 36 h p.i., titration on Vero E6
SARS-CoV-2 [4] = test: Time-of-addition experiments with SARS-CoV-2 in Vero E6 cells; format: cell-based; conditions: 50 μM, added at +4 h p.i.
[5] = test system: SARS-CoV-2 M^pro (NanoLuc-nsp4-M^pro fusion protein); format: cell-based

SMILES | IC50 (SARS-CoV-2 M^pro) [µM] | Fold increase of inhibitory potency against M^pro compared to parental hit 7 (SARS-CoV-2 M^pro) [fold] | SI, Selectivity Index (SARS-CoV-2 [1]) | CC50 at 72 h [2] [µM] | SARS-CoV-2 titers in supernatants of infected and treated Calu-3 cells (SARS-CoV-2 [3]) | Time-of-addition: effect of addition at 4 h p.i. (SARS-CoV-2 [4]) | Inhibition of proteolytic cleavage of NanoLuc-nsp4-M^pro in cells [5]
CC(C)[C@H](NC(=O)c1ccccc1NC(=O)c1ccccc1)C(=O)N[C@H](CO)C(C)C [Compound 36, 2-Benzamido-N-((S)-1-(((S)-1-hydroxy-3-methylbutan-2-yl)amino)-3-methyl-1-oxobutan-2-yl)benzamide] | 42.9 ± 8.3 | > 2 | >192 | > 250 | confirmed active | still exerted an antiviral effect | dose-dependent inhibition of the proteolytic cleavage
CC(C)[C@H](NC(=O)c1ccccc1NC(=O)c1ccccn1)C(=O)N[C@H](CO)C(C)C [Compound 37, N-(2-(((S)-1-(((S)-1-Hydroxy-3-methylbutan-2-yl)amino)-3-methyl-1-oxobutan-2-yl)carbamoyl)phenyl)picolinamide] | 41.3 ± 7.6 | > 2 | >119 | > 250 | confirmed active | still exerted an antiviral effect | dose-dependent inhibition of the proteolytic cleavage
